According to patent US11752156B2, “Compositions and methods for treating hyperproliferative skin disorders” (Athenex HK Innovative Limited, priority 2018, dated 2023):
Where “and” joins values, the source holds several entries; their conditions need not be identical. Identical values can stand only once. Like-named read-outs stand apart in the source and are kept apart here.

Tests used:
[1] = test system: squamous cell human carcinoma cell line (SCC A431); assay: MTT cell proliferation assay, 72 hours, dark or blue light, squamous cell carcinoma; format: cell-based; settings: for inhibition at 0.005 µM / inhibition at 0.02 µM / inhibition at 0.08 µM / inhibition at 0.32 µM / inhibition at 1.28 µM: Homo sapiens, read-out: growth inhibition relative to untreated control
Experimental: The effects of combined treatment with KX01, a vitamin D derivative, and/or blue/UV light exposure were characterized using a cell proliferation assay. Cell proliferation was assessed by using an MTT assay. Cells were seeded in 96-well plate (3,000-5,000 cells per well) and treated with test compounds at varying concentrations (e.g. KX01: 5 to 80 nM; calcipotriol 5 to 1,280 nM) for 72 hours, either in the dark or exposed to blue light irradiation (for 2, 4, or 6 hours). To each well, 10 μl of 3-(4,5-dimethylthiazol-2-yl)-2,5-diphenyltetrazolium bromide (MTT) (RPI Corporation™) solution (5 mg/ml in PBS) was added and incubated at 37° C. for 3 hours. Next, 100 μl of 20% SDS was added to each well. After overnight incubation at 37° C., the absorbance in each well was measured at 570 nm in a microplate reader (Molecular Devices™). The cell growth curve and GI50s were calculate using GraphPad Prism™ 5 software. Similar studies were performed using a squamous cell carcinoma cell line (SCC A431). Tables 19 and 20 show the results of cell growth inhibition studies (expressed as a percentage relative to control cell growth) for treatment with either KX01 or calcipotriol in combination with exposure to blue light. […] The percentage of growth inhibition relative to untreated control is shown. Tables 21 to 24 show the effects of combined treatment with KX01, calcipotriol, and exposure to blue light at 0 hours, 2 hours, 4 hours, and 6 hours of light exposure (respectively) on human squamous cell carcinoma cells. Values are expressed as the percentage of growth inhibition relative to cells grown under control conditions (0 hours blue light, [KX01]=0, [calcipotriol]=0). The percentage of growth inhibition relative to an untreated control is shown. […] Results are shown below in Tables 31 and 32, which show results for KX01 and calcipotriol (respectively). Values are expressed as the percentage of growth inhibition relative to cells grown under control conditions (0 hours blue light, [KX01]=0, [calcipotriol]=0). […] Results are shown below in Tables 33 to Table 36, which show results from 0, 2, 4, and 6 hours of blue light exposure (respectively). Values are expressed as the percentage of growth inhibition relative to cells grown under control conditions (0 hours blue light, [KX01]=0, [calcipotriol]=0).

CCD-1106 KERTr cells = assay: FITC annexin V / PI apoptosis assay by flow cytometry, 24 hours; format: cell-based, human; settings: for late apoptic cells: 24 hours
Experimental: In addition to growth inhibition, Inventors also investigated the effect of KX01 on apoptosis in keratinocytes. CCD-1106 KERTr cells (1×10^6) were seeded in 60 mm dishes and treated with test compounds at varying concentrations (e.g. KX01: 20 to 500 nM; calcipotriol 50 to 1000 nM) for 24 hours. Cell apoptosis was assessed by using a FITC annexin V apoptosis detection kit (BD Biosciences™) according to manufacturer's instruction. Briefly, cells were collected in 1× binding buffer and incubated with fluorescein isothiocyanate (FITC)-conjugated annexin V and propidium iodide (PI) for 15 minutes at room temperature in the dark, followed by flow cytometry analysis using a LSRFortessa™ flow cytometer (BD Biosciences™).

[2] = test system: human keratinocyte cell line; assay: inhibition of human keratinocyte growth, individual dose response, 72 hours, MTT assay; format: cell-based; settings: 72 hour exposure
Experimental: FIG. 4: Inhibition of human keratinocyte growth versus KX01 concentration (treatment duration: 72 hours; cell growth measured using the MTT assay). […] FIG. 5: Inhibition of human keratinocyte growth versus calcipotriol concentration (treatment duration: 72 hours; cell growth measured using the MTT assay). […] A human keratinocyte cell line was used in these studies.

Compound: C=C1/C(=C\C=C2/CCC[C@]3(C)[C@@H]([C@H](C)/C=C/[C@@H](O)C4CC4)CC[C@@H]23)C[C@@H](O)C[C@@H]1O [Calcipotriol, calcipotriol]
- inhibition at 0.005 µM ([1]; A-431, 0 h, calcipotriol 5 nM, blue light 0 h): 19%
- inhibition at 0.02 µM ([1]; A-431, 0 h, calcipotriol 20 nM, blue light 0 h): 30%
- inhibition at 0.08 µM ([1]; A-431, 0 h, calcipotriol 80 nM, blue light 0 h): 40%
- inhibition at 0.32 µM ([1]; A-431, 0 h, calcipotriol 320 nM, blue light 0 h): 41%
- inhibition at 1.28 µM ([1]; A-431, 0 h, calcipotriol 1,280 nM, blue light 0 h): 36%
- inhibition at 0.005 µM ([1]; A-431, 2 h, calcipotriol 5 nM, blue light 2 h): 26%
- inhibition at 0.02 µM ([1]; A-431, 2 h, calcipotriol 20 nM, blue light 2 h): 36%
- inhibition at 0.08 µM ([1]; A-431, 2 h, calcipotriol 80 nM, blue light 2 h): 41%
- inhibition at 0.32 µM ([1]; A-431, 2 h, calcipotriol 320 nM, blue light 2 h): 35%
- inhibition at 1.28 µM ([1]; A-431, 2 h, calcipotriol 1,280 nM, blue light 2 h): 38%
- inhibition at 0.005 µM ([1]; A-431, 4 h, calcipotriol 5 nM, blue light 4 h): 49%
- inhibition at 0.02 µM ([1]; A-431, 4 h, calcipotriol 20 nM, blue light 4 h): 44%
- inhibition at 0.08 µM ([1]; A-431, 4 h, calcipotriol 80 nM, blue light 4 h): 47%
- inhibition at 0.32 µM ([1]; A-431, 4 h, calcipotriol 320 nM, blue light 4 h): 49%
- inhibition at 1.28 µM ([1]; A-431, 4 h, calcipotriol 1,280 nM, blue light 4 h): 43%
- inhibition at 0.005 µM ([1]; A-431, 6 h, calcipotriol 5 nM, blue light 6 h): 67%
- inhibition at 0.02 µM ([1]; A-431, 6 h, calcipotriol 20 nM, blue light 6 h): 69%
- inhibition at 0.08 µM ([1]; A-431, 6 h, calcipotriol 80 nM, blue light 6 h): 67%
- inhibition at 0.32 µM ([1]; A-431, 6 h, calcipotriol 320 nM, blue light 6 h): 67%
- inhibition at 1.28 µM ([1]; A-431, 6 h, calcipotriol 1,280 nM, blue light 6 h): 68%
- growth inhibition relative to untreated control ([1]; calcipotriol 5 nM, blue light 0 h): 14%
- growth inhibition relative to untreated control ([1]; calcipotriol 5 nM, blue light 2 h): 27%
- growth inhibition relative to untreated control ([1]; calcipotriol 5 nM, blue light 4 h): 50%
- growth inhibition relative to untreated control ([1]; calcipotriol 5 nM, blue light 6 h): 62%
- growth inhibition relative to untreated control ([1]; calcipotriol 20 nM, blue light 2 h): 39%
- growth inhibition relative to untreated control ([1]; calcipotriol 20 nM, blue light 4 h): 48%
- growth inhibition relative to untreated control ([1]; calcipotriol 20 nM, blue light 6 h): 63%
- growth inhibition relative to untreated control ([1]; calcipotriol 80 nM, blue light 0 h): 27%
- growth inhibition relative to untreated control ([1]; calcipotriol 80 nM, blue light 4 h): 50%
- growth inhibition relative to untreated control ([1]; calcipotriol 80 nM, blue light 6 h): 61%
- growth inhibition relative to untreated control ([1]; calcipotriol 320 nM, blue light 0 h): 31%
- growth inhibition relative to untreated control ([1]; calcipotriol 320 nM, blue light 2 h): 37%
- growth inhibition relative to untreated control ([1]; calcipotriol 320 nM, blue light 4 h): 51%
- growth inhibition relative to untreated control ([1]; calcipotriol 320 nM, blue light 6 h): 60%
- growth inhibition relative to untreated control ([1]; calcipotriol 1,280 nM, blue light 0 h): 28%
- growth inhibition relative to untreated control ([1]; calcipotriol 1,280 nM, blue light 2 h): 39%
- growth inhibition relative to untreated control ([1]; calcipotriol 1,280 nM, blue light 4 h): 48%
- growth inhibition relative to untreated control ([1]; calcipotriol 1,280 nM, blue light 6 h): 58% and 57%
- effect on apoptosis compared with control cells (CCD-1106 KERTr cells; 200 nm calcipotriol): not distinguishable from that of control cells receiving no drug treatment
- late apoptic cells (CCD-1106 KERTr cells; calcipotriol 50 nM): 2.41%
- late apoptic cells (CCD-1106 KERTr cells; calcipotriol 200 nM): 2.06%
- late apoptic cells (CCD-1106 KERTr cells; calcipotriol 500 nM): 4.13%
- late apoptic cells (CCD-1106 KERTr cells; calcipotriol 1,000 nM): 4.19%
- IC50 [2]: 95.5 nM
